The record followed here is ChEMBL document CHEMBL1143763, “Synthesis, in vitro assay, and molecular modeling of new piperidine derivatives having dual inhibitory potency against acetylcholinesterase and Abeta1-42 aggregation for Alzheimer's disease therapeutics” (Bioorg Med Chem, 2007).

Each structure is given as a SMILES string.

Cholinesterase, sequence (P06276 whole entry): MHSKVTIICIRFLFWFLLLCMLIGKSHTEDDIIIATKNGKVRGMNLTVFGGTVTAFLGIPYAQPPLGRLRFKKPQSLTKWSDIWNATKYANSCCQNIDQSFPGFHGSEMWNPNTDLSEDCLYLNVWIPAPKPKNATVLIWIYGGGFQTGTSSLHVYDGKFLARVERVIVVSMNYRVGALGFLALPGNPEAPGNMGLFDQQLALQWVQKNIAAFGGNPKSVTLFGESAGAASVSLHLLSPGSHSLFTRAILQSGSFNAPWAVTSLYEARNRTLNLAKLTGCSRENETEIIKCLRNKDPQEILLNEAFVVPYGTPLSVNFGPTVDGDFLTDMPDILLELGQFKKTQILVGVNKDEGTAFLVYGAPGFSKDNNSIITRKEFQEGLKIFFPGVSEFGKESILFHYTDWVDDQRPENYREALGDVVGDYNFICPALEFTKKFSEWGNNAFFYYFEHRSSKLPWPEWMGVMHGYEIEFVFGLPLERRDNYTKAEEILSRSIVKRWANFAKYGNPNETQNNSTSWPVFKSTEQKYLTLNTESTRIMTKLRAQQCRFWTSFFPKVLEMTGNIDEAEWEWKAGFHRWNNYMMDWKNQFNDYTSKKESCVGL

One test concerns the target Cholinesterase (Homo sapiens, UniProt P06276).
Description: Inhibition of human BChE by Ellman's method
Consider `O=C(OCCCCN1CCC(OCc2ccccc2)CC1)c1ccc([N+](=O)[O-])cc1`, for which the IC50 came out at 5.23 µM.

In turn, `O=C(OCCCCN1CCC(OCc2ccccc2)CC1)c1ccc(F)cc1` returned an IC50 of 0.56 µM.

For the compound `O=C(OCCCCN1CCC(OCc2ccccc2)CC1)c1ccc(Cl)cc1`, the IC50 is 3.52 µM.

`CC(C)c1ccc(C(=O)OCCCCN2CCC(OC(c3ccccc3)c3ccccc3)CC2)cc1` returned a 50% inhibitory concentration (IC50) of 23.2 µM.

Consider `O=C(OCCCCN1CCC(OC(c2ccccc2)c2ccccc2)CC1)c1cccc(F)c1`, for which it took 31.5 µM to reach half-maximal inhibition (IC50).

For the compound `O=C(OCCCCN1CCC(OC(c2ccccc2)c2ccccc2)CC1)c1ccc([N+](=O)[O-])cc1`, the IC50 stood at 26.8 µM.

`CC(C)(C)c1ccc(C(=O)OCCCCN2CCC(OCc3ccccc3)CC2)cc1`: the concentration for half-maximal inhibition (IC50) is 15.2 µM. This IC50 is about 1.8-fold lower than that of the compound before.

For `O=C(OCCCCN1CCC(OCc2ccccc2)CC1)c1cccc(F)c1`, the concentration for half-maximal inhibition (IC50) was 1.58 µM.

For the compound `O=C(Nc1ccc(Cl)cc1)OCCCCN1CCC(OCc2ccccc2)CC1`, the IC50 was found to be 0.25 µM.

The compound `O=C(OCCCCN1CCC(OC(c2ccccc2)c2ccccc2)CC1)c1ccc(F)cc1` had an IC50 of 22.2 µM. Compared with the last compound, the IC50 is about 89-fold higher.

On to `O=C(OCCCCN1CCC(OCc2ccccc2)CC1)c1ccccc1`, for which half-maximal inhibition (IC50) was put at 1.89 µM.

In the case of `O=C(OCCCCN1CCC(OC(c2ccccc2)c2ccccc2)CC1)c1ccc(Cl)cc1`, half-maximal inhibition (IC50) was put at 38.4 µM.

As for `O=C(Nc1ccc(Cl)cc1)OCCCCN1CCC(OC(c2ccccc2)c2ccccc2)CC1`, the midpoint of inhibition, the IC50, lay at 13.7 µM. This IC50 is about 2.8-fold lower than that of the compound before.

For `O=C(Nc1ccc(F)cc1)OCCCCN1CCC(OC(c2ccccc2)c2ccccc2)CC1`, 15.7 µM corresponded to half-maximal inhibition (IC50).

Consider `CC(C)c1ccc(C(=O)OCCCCN2CCC(OCc3ccccc3)CC2)cc1`, for which it took 10.8 µM to reach half-maximal inhibition (IC50). This IC50 and that of the compound before are within 1.5-fold of each other.

`CC(C)(C)c1ccc(C(=O)OCCCCN2CCC(OC(c3ccccc3)c3ccccc3)CC2)cc1` gave a concentration for half-maximal inhibition (IC50) of 78.9 µM.

`O=C(Nc1ccc(F)cc1)OCCCCN1CCC(OCc2ccccc2)CC1`: half-maximal inhibition (IC50) required 0.78 µM.

The compound `O=C(OCCCCN1CCC(OC(c2ccccc2)c2ccccc2)CC1)c1cccc(Cl)c1` returned an IC50 of 57.9 µM. Against the preceding compound, the IC50 is about 74-fold higher.

The compound `O=C(OCCCCN1CCC(OCc2ccccc2)CC1)c1cccc(Cl)c1` had a concentration for half-maximal inhibition (IC50) of 1.35 µM.

`O=C(OCCCCN1CCC(OC(c2ccccc2)c2ccccc2)CC1)c1ccccc1` registered an IC50 of 31.5 µM.

For a further test, the target named is Acetylcholinesterase (Electrophorus electricus, UniProt O42275).
Acetylcholinesterase, sequence (O42275 whole entry): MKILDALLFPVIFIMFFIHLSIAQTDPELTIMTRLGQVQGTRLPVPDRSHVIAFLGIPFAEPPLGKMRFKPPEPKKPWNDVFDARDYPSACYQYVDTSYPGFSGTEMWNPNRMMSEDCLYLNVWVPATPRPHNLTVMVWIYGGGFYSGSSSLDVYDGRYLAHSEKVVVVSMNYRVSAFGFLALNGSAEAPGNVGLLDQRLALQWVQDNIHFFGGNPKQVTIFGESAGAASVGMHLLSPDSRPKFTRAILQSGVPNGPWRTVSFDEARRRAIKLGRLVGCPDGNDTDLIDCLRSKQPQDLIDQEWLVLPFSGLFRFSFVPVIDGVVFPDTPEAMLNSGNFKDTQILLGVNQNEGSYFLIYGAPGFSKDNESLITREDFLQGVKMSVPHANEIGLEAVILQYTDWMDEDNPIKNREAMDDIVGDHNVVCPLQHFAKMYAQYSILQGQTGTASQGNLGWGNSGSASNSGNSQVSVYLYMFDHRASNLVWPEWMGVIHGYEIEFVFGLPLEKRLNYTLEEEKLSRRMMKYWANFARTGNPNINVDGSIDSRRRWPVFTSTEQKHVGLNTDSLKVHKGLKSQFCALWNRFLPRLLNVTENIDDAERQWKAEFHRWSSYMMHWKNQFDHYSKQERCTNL
Description: Inhibition of Electrophorus electricus AChE by Ellman's method
`O=C(OCCCCN1CCC(OC(c2ccccc2)c2ccccc2)CC1)c1cccc(F)c1`: the IC50 was determined as 7.72 µM.

Turning to `O=C(OCCCCN1CCC(OC(c2ccccc2)c2ccccc2)CC1)c1ccc(Cl)cc1`, half-maximal inhibition (IC50) required 0.31 µM.

A word on the IC50: it is the point on the concentration scale where inhibition reaches its midpoint. Low values mean inhibition by little substance, high ones a need for much substance.
